Source: patent US8168672B2, “Thioamide derivatives as progesterone receptor modulators” (Wyeth, priority 2004, dated 2012)
Values joined by “and” are separate entries in the source; they are usually repeats but may differ in a detail not shown here. Identical values can stand only once.

Experiments:
[1] = tested on: alkaline phosphatase activity in T47D cells; experiment: T47D cytosol alkaline phosphatase assay (progestin/agonist mode); assay type: cell-based; conditions: Homo sapiens, 24 hours treatment; for Emax: agonist mode, read-out: % Efficacy; for EC50: T47D, 24 h, test compounds
Method: 5-(4,4-dimethyl-2-thioxo-1,4-dihydro-2H-3,1-benzoxazin-6-yl)-1-methyl-1H-pyrrole-2-carbothioamide (1) and 5-(4,4-dimethyl-2-oxo-1,4-dihydro-2H-3,1-benzoxazin-6-yl)-1-methyl-1H-pyrrole-2-carbothioamide (2) were tested in a T47D cytosol alkaline phosphatase assay (Table 1). The purpose of this functional assay was to identify progestins or antiprogestins by determining the compound's effect on alkaline phosphatase activity in T47D cells.
(i) Culture Medium: • DMEM:F12 (1:1) (GIBCO, BRL) supplemented with 5% (v/v) charcoal stripped fetal bovine serum (not heat-inactivated), 100 U/mL penicillin, 100 μg/mL streptomycin, and 2 mM the GlutaMax™ reagent (GIBCO, BRL).
(ii) Alkaline Phosphatase Assay Buffer: • I. 0.1 M Tris-HCl, pH 9.8, containing 0.2% the Triton™ reagent X-100 • II. 0.1 M Tris-HCl, pH 9.8 containing 4 mM p-nitrophenyl phosphate (Sigma).
(iii) Cell Culture and Treatment: • Frozen T47D cells were thawed in a 37° C. water bath and diluted to 280,000 cells/mL in culture medium. To each well in a 96-well plate (Falcon, Becton Dickinson Labware), 180 μL of diluted cell suspension was added. Twenty μL of reference or test compounds diluted in the culture medium was then added to each well. When testing for progestin antagonist activity, reference antiprogestins or test compounds were added in the presence of 1 nM progesterone. The cells were incubated at 37° C. in a 5% CO2/humidified atmosphere for 24 hours.
(iv) Alkaline Phosphatase Enzyme Assay: • At the end of treatment, the medium was removed from the plate and 50 μL of assay buffer I was added to each well. The plates were shaken in a titer plate shaker for 15 minutes. Then 150 μL of assay buffer II was added to each well. Optical density measurements were taken at 5 minute intervals for 30 minutes at a test wavelength of 405 nm.
(v) Analysis of Results: • Analysis of dose-response data: For reference and test compounds, a dose response curve is generated for dose (X-axis) vs. the rate of enzyme reaction (slope) (Y-axis). Square root-transformed data are used for analysis of variance and nonlinear dose response curve fitting for both agonist and antagonist modes. Huber weighting is used to downweight the effects of outliers. EC50 or IC50 values are calculated from the retransformed values. JMP software (SAS Institute, Inc.) is used for both one-way analysis of variance and non-linear dose response analyses in both single dose and dose response studies.
(vi) Reference Compounds: • Progesterone and trimegestone are reference progestins and RU486 was the reference antiprogestin. All reference compounds are run in full dose response curves and the EC50 or IC50 values calculated.

[2] = Solubility in dimethylsulfoxide (observation during characterisation); assay type: physicochemical
Method: A 5-L round-bottomed flask equipped with a mechanical stirrer and a reflux condenser was charged with the isolated solid (16.5 g) and acetone (2700 mL) was added in portions via the condenser while the suspension was heated to reflux. The reflux condenser was replaced with a regular one and acetone was distilled off. After distilling 2130 mL of acetone, the formed slurry was cooled to room temperature, stirred overnight, and filtered on a sintered-glass funnel to give a dark-yellow, crystalline, sandy solid. The filtered solid was dried at 40° C. in vacuo to give 12.5 g (76% recrystallization yield; 38% total yield) of 5-(4,4-dimethyl-2-thioxo-1,4-dihydro-2H-3,1-benzoxazin-6-yl)-1-methyl-1H-pyrrole-2-carbothioamide. LC purity: 95.94%; 1.65% NSP-989; rrt 0.88. LC-MS: 331 (M^+); impurity 297 (NSP-989). Mp: particles of various shapes; small particles melted 210-215° C.; next 218-220° C.; final melt 223-226° C. IR (KBr, cm^−1): 3375, 3269, 3165, 2211, 1624, 1610, 1540, 1526, 1466, 1370, 1294, 1261, 1186, 1114, 1086, 959, 880, 822, 779. ^1H NMR (DMSO-d6, ppm): 12.28 (s, 1H), 9.22 (s, 1H, S═CNH2), 8.97 (s, 1H, S═CNH2), 7.41 (d, 1H, J=7.05 Hz), 7.40 (s, 1H), 7.12 (d, 1H, J=8.85 Hz), 6.72 (d, 1H, J=3.9 Hz), 6.23 (d, 1H, J=3.9 Hz), 3.83 (s, 3H), 1.68 (s, 6H).

[3] = tested on: alkaline phosphatase activity in T47D cells; experiment: T47D alkaline phosphatase assay (antiprogestin/antagonist mode, in the presence of 1 nM progesterone); assay type: cell-based; conditions: Homo sapiens, reference antiprogestin, three independent experiments (Exp 1-3), read-out: Estimated IC50
Method: 0.1 M Tris-HCl, pH 9.8 containing 4 mM p-nitrophenyl phosphate (Sigma). […] To each well in a 96-well plate (Falcon, Becton Dickinson Labware), 180 μL of diluted cell suspension was added. Twenty μL of reference or test compounds diluted in the culture medium was then added to each well. When testing for progestin antagonist activity, reference antiprogestins or test compounds were added in the presence of 1 nM progesterone. The cells were incubated at 37° C. in a 5% CO2/humidified atmosphere for 24 hours. […] The plates were shaken in a titer plate shaker for 15 minutes. Then 150 μL of assay buffer II was added to each well. […] Square root-transformed data are used for analysis of variance and nonlinear dose response curve fitting for both agonist and antagonist modes. Huber weighting is used to downweight the effects of outliers. EC50 or IC50 values are calculated from the retransformed values.

SMILES | Emax [1] [%] | EC50 [1] [nM] | Solubility in dimethylsulfoxide (DMSO) [2] | IC50 [3]
Cn1c(C(N)=S)ccc1-c1ccc2c(c1)C(C)(C)OC(=S)N2 [Compound 1, 5-(4,4-dimethyl-2-thioxo-1,4-dihydro-2H-3,1-benzoxazin-6-yl)-1-methyl-1H-pyrrole-2-carbothioamide] | 60 | 0.2 | sparingly soluble | 
Cn1c(C(N)=S)ccc1-c1ccc2c(c1)C(C)(C)OC(=O)N2 [Compound 2, 5-(4,4-dimethyl-2-oxo-1,4-dihydro-2H-3,1-benzoxazin-6-yl)-1-methyl-1H-pyrrole-2-carbothioamide] | 72 | 1.9 |  | 
CC#C[C@]1(O)CC[C@H]2[C@@H]3CCC4=CC(=O)CCC4=C3[C@@H](c3ccc(N(C)C)cc3)C[C@@]21C [RU486] |  |  |  | 0.103 nM and 0.12 nM
